The text below walks through data of patent publication US5118681A (priority 1989, dated 1992).

Values after ≈ are worked out from the molar mass of the structure shown. A value given as a limit tells only on which side of the number the result lay.

One assay deals with A.n. Description: Minimum Inhibitory Concentration Test, alternate (Table 4), A.n. It counts as cell-based, Aspergillus niger. The following applies: Aspergillus niger, TSB, 72 hours. In a few lines:
(§1)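 Compound in acetone was diluted into TSB and serially diluted 1:1 from 250 ppm down to 0.8 ppm, in duplicate. Plates were inoculated with diluted 24 h culture and incubated 3 days at 30° C; MIC recorded as lowest concentration with no growth.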

A further assay relates to Pseudomonas fluorescens. Description: Minimum Inhibitory Concentration Test, alternate (Table 4), Ps.fl. It counts as cell-based. The following applies: Pseudomonas fluorescens, TSB, 72 hours, 30° C. In short, it runs like this: as §1
The test system of assay [1] is Pseudoperonospora cubensis. In words: whole plant or invertebrate. It counts as in vivo. The following applies: Pseudoperonospora cubensis, in Cucumis sativus, 168 h; read-out: % control CDM.
The next assay concerns Piricularia oryzae. Description: whole plant or invertebrate. The format is in vivo. The following applies: Pyricularia oryzae, read-out: % control RB.
Assay [2] deals with Pellicularia filamentosa (f. sp. sasiki). In words: whole plant or invertebrate. The format is in vivo. The following applies: 120 h; read-out: % control RSB.
Another assay has as its system Phytophthora infestans. Description: whole plant or invertebrate. The format is in vivo. The following applies: Phytophthora infestans, in Solanum lycopersicum, 96 h, read-out: % control TLB.
For assay [3], the system named is Erysiphe graminis (f. sp. tritici). Description: whole plant or invertebrate. It counts as in vivo. The following applies: Blumeria graminis; read-out: % control WPM.
Assay [4] concerns Puccinia graminis (f. sp. tritici Race 15B-2). In words: whole plant or invertebrate. The following applies: 336 h, read-out: % control WSR. The format is in vivo.
In assay [5] the test system is Puccinia recondita (f. sp. tritici Races PKB and PLD). In words: whole plant or invertebrate. It counts as in vivo. The following applies: Puccinia recondita, 240 h; read-out: % control WLR.
The test system of a further assay is A.p. Description: Minimum Inhibitory Concentration Test, alternate (Table 4), A.p. It counts as cell-based. The following applies: Aureobasidium pullulans, TSB, 72 hours. How it is done:
(§2) A 125 μl aliquot of 10,000 ppm test compound in acetone was added to 4.88 ml of TSB to provide a 250 ppm solution. From this solution, 100 μL was transferred to the first row of two microtiter plate columns. Both replicates and five additional compounds were all serially diluted 1:1 to a final concentration of 0.8 ppm in TSB.
(§3) Inoculation was accomplished by diluting a 24 hr Ps fl culture, four mls per 36 mls of phosphate buffer solution. A Dynatech autoinoculator was used to transfer 1.5 μl of this cell suspension to the microtiter plates. The plates were incubated at 30° C. for 3 days before the lowest concentration at which no growth occurs was recorded in the database. The SOK data and MIC test data on Ps.fl, Ps.ae, E.c, and S.a. bacteria and Candida albicans (C.alb), A.n and A.p fungi are listed in Table 4.

The next assay has as its system Candida albicans (C.alb). Description: Minimum Inhibitory Concentration Test, alternate (Table 4), C.alb. The format is cell-based. The following applies: Candida albicans, TSB, 72 hours. How it is done: as §2, §3
The subject of another assay is E.c. Description: Minimum Inhibitory Concentration Test, alternate (Table 4), E.c. It counts as cell-based, Escherichia coli. The following applies: Escherichia coli, TSB, 72 hours. As for the experimental part:
as §2, §3

For a further assay, the system named is Ps.ae. Description: Minimum Inhibitory Concentration Test, alternate (Table 4), Ps.ae. It counts as cell-based, Pseudomonas aerugenosa. The following applies: Pseudomonas, TSB, 72 hours.
A further assay has as its system S.a. In words: Minimum Inhibitory Concentration Test, alternate (Table 4), S.a. The following applies: Staphylococcus aureus, TSB, 72 hours. It counts as cell-based, Staphylococcus aureus. How it is done: as §2, §3

By MIC is commonly meant the least concentration at which growth counts as inhibited. With `CCCCCCCCNC(=O)/C=C\SC(C(=O)CC)C(=O)CC` [Example 8, N-n-octyl-cis-3-[4-(3,5-heptanedionyl)thio]acrylamide], the MIC against A.n and against Pseudomonas fluorescens was more than 500 µg/mL throughout. The pest or weed control at 200 ppm in assay [1] was found to be 95%; in the assay with Piricularia oryzae, 95%; in assay [2], 0%; in the assay with Phytophthora infestans, 92%; in assay [3], 0%; in assay [4], 60%.

Regarding `CCCCCCCCNC(=O)/C=C\SC1C(=O)CC(C)(C)CC1=O` [Example 9, N-n-octyl-cis-3-[2-(5,5-dimethyl-1,3-cyclohexanedionyl)thio]acrylamide], the minimal inhibitory concentration (MIC) against A.n and against Pseudomonas fluorescens was more than 500 µg/mL each time. The pest or weed control at 200 ppm in assay [1] amounted to 99%; in the assay on Piricularia oryzae, 50%; in [2] it was 0%; in the assay on Phytophthora infestans, 70%; in assay [3] it was 0%; in assay [4] it was 60%.

Regarding `CCCCCCCCNC(=O)/C=C\SC(C(=O)c1ccccc1)C(=O)c1cccn1C` (stereo not drawn) [Example 68, N-n-octyl-cis-3-{2-[1-phenyl-3-(1-methylpyrroyl-2-yl)-1,3-propanedionyl]thio}acrylamide], in the assay with Pseudomonas fluorescens, the MIC is more than 250 µg/mL. Moreover, the pest or weed control at 100 ppm with Piricularia oryzae was found to be 80%; in assay [2], 0%; in the assay on Phytophthora infestans, 60%; in [3] it was 0%; in assay [4] it was 0%; in [5] it was 0%.

For `CCCCCCNC(=O)/C=C\SC(C(C)=O)C(C)=O` [Example 5, N-n-hexyl-cis-3-[3-(2,4-pentanedionyl)thio]acrylamide], the MIC against A.n is 31 to 63 µg/mL (≈ 109 to 221 µM); with A.p it was less than 4 µg/mL; in the assay on Candida albicans (C.alb), 16 µg/mL (≈ 56.1 µM); against E.c, more than 500 µg/mL; with Ps.ae, more than 500 µg/mL; in the assay with Pseudomonas fluorescens, more than 500 µg/mL. The same molecule showed an MIC against S.a of 63 to 125 µg/mL (≈ 221 to 438 µM). Besides, the pest or weed control at 200 ppm in [1] came out at 100%; in the assay with Piricularia oryzae, 90%; with Phytophthora infestans it was 95%. Besides, the pest or weed control at 300 ppm worked out at 0% in assay [2], 0% in assay [3] and 70% in assay [4].

Regarding `CCCCCCNC(=O)/C(Cl)=C(/Cl)SC(C(C)=O)C(C)=O` [Example 7, N-n-hexyl-2,3-dichloro-cis-3-[3-(2,4-pentanedionyl)thio]acrylamide], the MIC against A.n was 8 to 63 µg/mL (≈ 22.6 to 178 µM); in the assay on A.p, 8 µg/mL (≈ 22.6 µM); against Candida albicans (C.alb), 31 µg/mL (≈ 87.5 µM); in the assay on E.c, 125 µg/mL (≈ 353 µM); in the assay on Ps.ae, 500 µg/mL (≈ 1410 µM); against Pseudomonas fluorescens, 250 to 500 µg/mL (≈ 706 to 1410 µM). This molecule gave an MIC against S.a of 125 µg/mL (≈ 353 µM). For the same molecule, the pest or weed control at 300 ppm in assay [1] turned out to be 95%; in assay [2], 0%; in the assay with Phytophthora infestans, 20%; in assay [3], 0%; in assay [4], 60%.

As for `CCCCCCCCNC(=O)/C=C\SC(C(C)=O)C(=O)CC` (stereo not drawn) [Example 10, N-n-octyl-cis-3-[3-(2,4-hexanedionyl)thio]acrylamide], the MIC against A.n and with Pseudomonas fluorescens was more than 500 µg/mL in each case. For the same molecule, the pest or weed control at 200 ppm in assay [1] worked out at 100%; in the assay on Piricularia oryzae, 95%; in assay [2], 0%; in the assay on Phytophthora infestans, 98%; in [3], 30%; in assay [4], 80%.

For `CCCCCCCCNC(=O)/C=C\SC(C(=O)Nc1ccccc1OC)C(=O)OCC` (stereo not drawn) [Example 53, N-n-octyl-cis-3-{2-[ethyl-N-(2-methoxyphenyl)malonamido]thio}acrylamide], the MIC with A.n is 500 µg/mL (≈ 1110 µM); in the assay on Pseudomonas fluorescens, more than 500 µg/mL. In addition, the pest or weed control at 100 ppm in assay [1] was 100%; with Piricularia oryzae it was 90%; in [2] it was 0%; in the assay with Phytophthora infestans it was 97%; in assay [3], 0%; in assay [4], 0%. Besides, the pest or weed control at 100 ppm in assay [5] was determined as 0%.

With `CCCCCCCCNC(=O)/C=C\SC(C(C)=O)C(=O)OCC` (stereo not drawn) [Example 11, N-n-octyl-cis-3-[2-(ethoxy-3-oxobutanoyl)thio]acrylamide], the MIC against A.n was 4 to 8 µg/mL (≈ 11.6 to 23.3 µM); in the assay with A.p, less than 4 µg/mL; against Candida albicans (C.alb), less than 4 µg/mL; with E.c it was more than 500 µg/mL; against Ps.ae, more than 500 µg/mL; in the assay with Pseudomonas fluorescens it was 250 to 500 µg/mL (≈ 728 to 1460 µM). This molecule also returned an MIC with S.a of more than 500 µg/mL. Also, the pest or weed control at 200 ppm in assay [1] came to 85%; in the assay on Piricularia oryzae, 0%; in assay [2] it was 0%; with Phytophthora infestans, 0%; in assay [3], 50%; in assay [5], 50%.

Consider `CCCCCNC(=O)/C=C\SC(C(C)=O)C(C)=O` [Example 3, N-n-pentyl-cis-3-[3-(2,4-pentanedionyl)thio]acrylamide], for which the MIC was 31 to 63 µg/mL (≈ 114 to 232 µM) with A.n; 8 µg/mL (≈ 29.5 µM) with A.p; 31 µg/mL (≈ 114 µM) against Candida albicans (C.alb); 125 to 250 µg/mL (≈ 461 to 921 µM) against E.c; more than 500 µg/mL with Ps.ae; more than 500 µg/mL against Pseudomonas fluorescens. Moreover, in the assay on S.a, 125 µg/mL (≈ 461 µM) was the least that counted as inhibitory (MIC). Moreover, the pest or weed control at 300 ppm was 98% in assay [1], 0% in the assay with Piricularia oryzae, 0% in assay [2] and 60% in [4]. Moreover, the figures for the pest or weed control at 100 ppm (with Phytophthora infestans; in [3]) were 40% and 0%, respectively.

Take `CCCCCCCCNC(=O)/C=C\SC(C(=O)c1ccccc1)C(=O)c1ccccc1` [Example 67, N-n-octyl-cis-3-[2-(1,3-diphenyl-1,3-propanedionyl)thio]acrylamide]: the pest or weed control at 100 ppm came to 90% in the assay on Piricularia oryzae; 0% in assay [2]; 0% in the assay with Phytophthora infestans; 0% in assay [3]; 0% in assay [4]; 0% in assay [5].

In the case of `CCCCCCCCNC(=O)/C=C\SC(C(C)=O)C(=O)C1CC1` (stereo not drawn) [Example 29, N-n-octyl-cis-3-[2-(1-cyclopropyl-1,3-butanedionyl)thio]acrylamide], the minimum inhibitory concentration (MIC) against A.n was 8 to 31 µg/mL (≈ 23.6 to 91.3 µM); against A.p, 125 µg/mL (≈ 368 µM); in the assay on Candida albicans (C.alb), 31 µg/mL (≈ 91.3 µM); in the assay on E.c, more than 500 µg/mL; in the assay with Ps.ae, more than 500 µg/mL; in the assay with Pseudomonas fluorescens, more than 500 µg/mL. Further, the MIC against S.a is more than 500 µg/mL. Moreover, the pest or weed control at 200 ppm in assay [1] came out at 95%; in the assay on Piricularia oryzae it was 77%; in assay [2], 0%; in the assay on Phytophthora infestans, 85%; in [3], 0%; in [5], 0%.

Regarding `CCCCCCCNC(=O)/C=C\SC(C(C)=O)C(C)=O` [Example 4, N-n-heptyl-cis-3-[3-(2,4-pentanedionyl)thio]acrylamide], the MIC is 16 to 63 µg/mL (≈ 53.4 to 210 µM) with A.n; less than 4 µg/mL with A.p; less than 4 µg/mL in the assay on Candida albicans (C.alb); more than 500 µg/mL against E.c; more than 500 µg/mL in the assay on Ps.ae; more than 500 µg/mL in the assay with Pseudomonas fluorescens. In the assay on S.a, this molecule returned an MIC of 63 µg/mL (≈ 210 µM). Further, the pest or weed control at 200 ppm in [1] is 98%; in the assay on Piricularia oryzae, 60%; in the assay on Phytophthora infestans it was 100%. In addition, the results for the pest or weed control at 300 ppm in assay [2] and in [4] were 0% and 80%, respectively. Moreover, the pest or weed control at 100 ppm in assay [3] is 0%.

With `CCCCCCCCNC(=O)/C=C\SC(C(=O)Nc1cccc(C)c1)C(=O)OCC` (stereo not drawn) [Example 54, N-n-octyl-cis-3-{2-[ethyl-N-(3-methylphenyl)malonamido]thio}acrylamide], the minimum inhibitory concentration (MIC) in the assay on A.n and in the assay with Pseudomonas fluorescens was more than 500 µg/mL throughout. The pest or weed control at 100 ppm in [1] was 97%; in the assay on Piricularia oryzae it was 87%; in assay [2], 0%; in the assay on Phytophthora infestans, 80%; in [3] it was 0%; in [4], 0%. The pest or weed control at 100 ppm in assay [5] was found to be 0%.
